Structures can show the parent of a compound that is named as a salt.
Assays:
[1] = Maximum Tolerated Dose after acute administration; details: mouse, in vivo, ip, mice
Protocol: The Maximum Tolerated Dose (MTD) in mice was determined for selected compounds. The protocol of the studies was in accordance with the standard guidelines for drug development: • (htp://dtp.nci.nih.gov/branches/btb/acute tox.html). Table 10. Maximum Tolerated Doses in mice after acute i.p. administration

mice [2] = assay: Hot plate test (analgesic activity); assay type: in vivo; details: 10 and 30 mg/kg i.p.
Protocol: The hot plate test was used as an animal model of thermally-induced pain. The inhibitory activity measured on the time licking and biting induced by temperature (30 sec max at 55°C) indicates analgesic effect. […] Table 13. Analgesic activity of example 1 in the hot plate test

mice [3] = assay: Formalin test (antinociceptive activity); assay type: in vivo
Protocol: The chemical irritant formalin test is used as a chronic pain model in animals. The s.c. administration of formalin to the paw of a mouse produces a biphasic nociceptive behavioral response, an early response (0-5 min after injection) and a late response (20-30 min after injection) (Hunskaar, S., Fasmer, O.B., Hole, K. Formalin test in mice, a useful technique for evaluating mild analgesics. J Neurosci Methods, 1985 ;14(1):69-76).
Aspirine and paracetamol are included as external active references in early and late response. Table 12. Early and late response inhibition in the formalin test.

tumor prostate LNCaP-FGC = assay: Tumor cell proliferation assay (alamarBlue); assay type: cell-based; details: Homo sapiens; tumor prostate LNCaP-FGC; read-out: IC50
Protocol: (§1) Changes in cell proliferation were detected based on the ability of viable cells to cause alamarBlue® to change its oxidized (non-fluorescent, blue) to a reduced (fluorescent, red) form. The alamarBlue® reaction allows the quantification of cell proliferation and examination of the metabolic activity of viable cells. Test substances were examined for activity on the proliferation of human or murine tumor cell lines at assay concentrations from 0.01 to 100 µM.

tumor breast MCF-7 = assay: Tumor cell proliferation assay (alamarBlue); assay type: cell-based; details: Homo sapiens, MCF7; tumor breast MCF-7; read-out: IC50
Protocol: as §1

tumor liver HepG2 = assay: Tumor cell proliferation assay (alamarBlue); assay type: cell-based; details: Homo sapiens; tumor liver HepG2; read-out: IC50
Protocol: as §1

tumor breast MDA-MB-231 = assay: Tumor cell proliferation assay (alamarBlue); assay type: cell-based; details: Homo sapiens; tumor breast MDA-MB-231; read-out: IC50
Protocol: as §1

tumor leukaemia K562 = assay: Tumor cell proliferation assay (alamarBlue); assay type: cell-based; details: Homo sapiens; tumor leukaemia K562; read-out: IC50
Protocol: as §1

tumor lung A549 = assay: Tumor cell proliferation assay (alamarBlue); assay type: cell-based; details: Homo sapiens; tumor lung A549; read-out: IC50
Protocol: as §1

tumor brain U-87 MG = assay: Tumor cell proliferation assay (alamarBlue); assay type: cell-based; details: Homo sapiens; tumor brain U-87 MG; read-out: IC50
Protocol: as §1

tumor colon HCT-116 = assay: Tumor cell proliferation assay (alamarBlue); assay type: cell-based; details: Homo sapiens; tumor colon HCT-116; read-out: IC50
Protocol: as §1

tumor breast T-47D = assay: Tumor cell proliferation assay (alamarBlue); assay type: cell-based; details: Homo sapiens, T47D; tumor breast T-47D; read-out: IC50
Protocol: as §1

tumor ovary OVCAR-3 = assay: Tumor cell proliferation assay (alamarBlue); assay type: cell-based; details: Homo sapiens; tumor ovary OVCAR-3; read-out: IC50
Protocol: as §1

tumor liver Hep 3B = assay: Tumor cell proliferation assay (alamarBlue); assay type: cell-based; details: Homo sapiens, Hep3B; tumor liver Hep 3B; read-out: IC50
Protocol: as §1

[4] = target: T1, Gonadotrophin-releasing hormone receptors (GnRH, LH-RH)R (Homo sapiens, UniProt P30968); assay: GnRH radioligand binding assay; details: GnRH radioligand binding, 10 µM; read-out: % Inhibition at 10 µM
T1 construct: expressed in transfected cells; host or cells: Chem-1 cells
T1 sequence (P30968 1-328): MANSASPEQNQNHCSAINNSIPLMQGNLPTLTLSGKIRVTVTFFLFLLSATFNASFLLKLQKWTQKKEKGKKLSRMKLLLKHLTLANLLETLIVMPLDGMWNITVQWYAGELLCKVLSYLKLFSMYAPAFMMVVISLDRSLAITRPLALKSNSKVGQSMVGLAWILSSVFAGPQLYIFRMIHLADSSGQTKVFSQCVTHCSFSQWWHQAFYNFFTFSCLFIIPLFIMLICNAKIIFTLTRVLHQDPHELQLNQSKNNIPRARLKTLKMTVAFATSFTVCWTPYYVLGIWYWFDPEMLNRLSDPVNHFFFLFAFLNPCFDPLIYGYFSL
Excerpt: Gonadotrophin-releasing hormone receptors (GnRH, LH-RH)R are a family of G protein-coupled receptors for GnRH, which promotes the secretion of luteinizing hormone (LH) and follicle-stimulating hormone (FSH). The activation of this receptor promotes, through estrogen receptors (ER) located in the cytosol, an increase in gene transcription and activation of tumor suppressor genes, DNA repair, cell division and cell proliferation. GnRH agonists are useful in breast, prostate and ovarian cancer, endometriosis, melanoma, rheumatoid arthritis and Alzheimer's disease. Table 17 presents the results from radioligand binding studies for GnRH for selected compounds using human recombinant Chem-1 cells (Halmos G, Schally AV, Pinski J, Vadillo-Buenfill M, Groot K. Down regulation of pituitary receptors for luteinizing hormone-releasing hormone (LH-RH) in rats by LH-RH antagonist Cetrorelix. Prco Natl Acad Sci USA 1996;93(6):2398-2402). The specific and non specific ligands used were [^125l] [D-Trp^6]-LH-RH (0.05 nM) and [D-Trp^6]-LH-RH ([…]) and after 60 min of incubation at 25°C in a 50 mM HEPES, pH 7.5, 5 mM MgCl2, 1 mM CaCl2, and 0.2% BSA the activity was measured by radioligand binding. Table 17. GnRH radioligand binding assay

tumor melanoma B16-FO = assay: Tumor cell proliferation assay (alamarBlue); assay type: cell-based, murine; details: Mus musculus; tumor melanoma B16-FO; read-out: IC50
Protocol: as §1

Src = target: T2, Src (Homo sapiens, UniProt P12931); assay: Src protein tyrosine kinase inhibition (ELISA of Poly[Glu:Tyr-P]); assay type: biochemical; details: Src, at 10 µM; read-out: % Inhibition
T2 construct: host or cells: Sf9 insect cells
T2 sequence (P12931 whole entry): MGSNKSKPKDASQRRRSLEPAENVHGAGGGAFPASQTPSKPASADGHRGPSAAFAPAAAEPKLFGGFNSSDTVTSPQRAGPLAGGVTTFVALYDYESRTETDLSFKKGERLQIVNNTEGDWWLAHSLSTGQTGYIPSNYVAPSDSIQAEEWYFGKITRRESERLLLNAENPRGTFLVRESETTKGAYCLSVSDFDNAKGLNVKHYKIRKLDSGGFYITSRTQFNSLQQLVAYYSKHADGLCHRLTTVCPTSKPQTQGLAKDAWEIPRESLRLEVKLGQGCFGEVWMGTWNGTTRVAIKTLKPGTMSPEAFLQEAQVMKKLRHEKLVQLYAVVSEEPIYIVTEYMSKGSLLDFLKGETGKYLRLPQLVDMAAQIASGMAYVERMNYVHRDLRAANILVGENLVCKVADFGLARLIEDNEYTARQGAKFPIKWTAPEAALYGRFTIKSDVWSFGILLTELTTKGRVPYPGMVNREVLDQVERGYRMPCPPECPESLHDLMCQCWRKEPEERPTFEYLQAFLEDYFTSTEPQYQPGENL
Protocol: Src protein tyrosine kinase activity was assessed in human recombinant insect Sf9 cells using as a substrate Poly(Glu:Tyr) at 10 µg/mL with preincubation and incubation times of 15 and 5 min, respectively, at 22°C in 50 mM HEPES, pH 7.4, 1 mM DTT, 20 mM MgCl2 and 0.2 mM Na3VO4. An ELISA quantitation method of Poly[Glu:Tyr-P] was employed (Farley, K et al. Anal Biochem, 1992, 203, 151-157). Table 4. Inhibition of Src at 10 µM

NE Uptake = assay: Norepinephrine uptake inhibition; assay type: biochemical
5-HT Uptake = assay: Serotonin uptake inhibition in brain synaptosomes; assay type: biochemical, rat
Protocol: Inhibition of serotonin uptake has been tested in rat brain synaptosomes using [^3H]serotonin (0.2 µCi/ml) after 15 min of incubation at 37°C and measuring the incorporation of [^3H]serotonin into synaptosomes by scintillation counting (Perovic, S. and Muller, W.E.G. Arzneim-Forsch. Drug Res., 1995, 45, 1145-1148).

NET = target: T3, NET (Homo sapiens, UniProt P23975); assay: Norepinephrine transporter binding ([3H]nisoxetine)
T3 construct: expressed in transfected cells; host or cells: CHO cells
T3 sequence (P23975 whole entry): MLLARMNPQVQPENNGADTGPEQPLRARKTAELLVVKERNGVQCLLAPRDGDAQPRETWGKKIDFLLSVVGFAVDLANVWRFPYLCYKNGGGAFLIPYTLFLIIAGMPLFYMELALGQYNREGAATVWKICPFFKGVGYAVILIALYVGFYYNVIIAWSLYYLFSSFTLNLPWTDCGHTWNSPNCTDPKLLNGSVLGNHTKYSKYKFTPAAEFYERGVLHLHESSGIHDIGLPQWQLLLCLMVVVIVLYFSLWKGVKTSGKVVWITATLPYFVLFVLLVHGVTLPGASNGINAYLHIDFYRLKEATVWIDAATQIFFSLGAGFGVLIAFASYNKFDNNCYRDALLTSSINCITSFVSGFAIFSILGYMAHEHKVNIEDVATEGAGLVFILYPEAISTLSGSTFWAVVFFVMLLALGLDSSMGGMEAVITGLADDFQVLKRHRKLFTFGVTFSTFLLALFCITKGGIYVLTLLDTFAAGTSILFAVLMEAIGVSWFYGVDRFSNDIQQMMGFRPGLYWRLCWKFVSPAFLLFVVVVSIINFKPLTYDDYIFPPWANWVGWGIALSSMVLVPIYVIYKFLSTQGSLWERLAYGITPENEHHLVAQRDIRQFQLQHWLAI
Protocol: (§2) Serotonin transporter (SERT) inhibitors increase extracellular concentrations of serotonin (5-HT) and amplify signals sent by serotonin neurons. Agents that block SERT have been studied for the treatment of several diseases including depression and anxiety. Inhibitors of monoamine transporters have been tested for NET (Pacholczyk, T. et al. Nature, 1991, 350, 350-354) and SERT (Tatsumi, M. et al. Eur J Pharmacol, 1999, 368, 277-283). Norepinephrine transport was assessed in human recombinant CHO cells using [^3H]nisoxetine as a ligand at 1 nM after 60 min of incubation at 22°C, and a scintillation method as a method of detection. Serotonine transport was assessed in human recombinant CHO cells using [^3H]imipramine as a ligand at 2 nM after 60 min of incubation at 22°C, and a scintillation counting as a method of detection.

5-HT2A receptor = target: T4, 5-HT2A receptor (Homo sapiens, UniProt P28223); assay: 5-HT2A receptor binding ([3H]ketanserin); details: 5-HT2A binding
T4 construct: expressed in transfected cells; host or cells: HEK-293 cells
T4 sequence (P28223 whole entry): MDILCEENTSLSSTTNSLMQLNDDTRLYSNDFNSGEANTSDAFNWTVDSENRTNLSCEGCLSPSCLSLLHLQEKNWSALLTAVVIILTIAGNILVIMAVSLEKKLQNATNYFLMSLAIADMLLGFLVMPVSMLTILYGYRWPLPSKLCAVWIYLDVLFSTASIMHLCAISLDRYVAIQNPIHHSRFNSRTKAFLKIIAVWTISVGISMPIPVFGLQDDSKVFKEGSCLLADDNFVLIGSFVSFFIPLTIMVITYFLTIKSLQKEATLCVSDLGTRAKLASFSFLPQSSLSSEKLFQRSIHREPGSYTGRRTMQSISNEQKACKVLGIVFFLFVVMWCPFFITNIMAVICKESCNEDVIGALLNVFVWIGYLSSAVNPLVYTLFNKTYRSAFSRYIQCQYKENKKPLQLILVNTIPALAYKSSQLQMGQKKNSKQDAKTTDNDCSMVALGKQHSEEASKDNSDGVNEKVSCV
Protocol: The 5-HT2A receptor belongs to the G-protein-coupled receptor (GPCR) target class linked to anxiety and depression. Using human recombinant HEK-293 cells, the binding of compounds of formula (I) to this receptor was determined. The ligand used was [^3H]ketanserin at 0.5 nM and the quantification of the activity was assessed by scintillation counting after 60 min at 22°C (Bonhaus, et al. Br J Pharmacol, 1995, 115, 622-628). Table 16. Inhibition of 5-HT2A binding

SERT = target: T5, SERT (Homo sapiens, UniProt P31645); assay: Serotonin transporter binding ([3H]imipramine)
T5 construct: expressed in transfected cells; host or cells: CHO cells
T5 sequence (P31645 whole entry): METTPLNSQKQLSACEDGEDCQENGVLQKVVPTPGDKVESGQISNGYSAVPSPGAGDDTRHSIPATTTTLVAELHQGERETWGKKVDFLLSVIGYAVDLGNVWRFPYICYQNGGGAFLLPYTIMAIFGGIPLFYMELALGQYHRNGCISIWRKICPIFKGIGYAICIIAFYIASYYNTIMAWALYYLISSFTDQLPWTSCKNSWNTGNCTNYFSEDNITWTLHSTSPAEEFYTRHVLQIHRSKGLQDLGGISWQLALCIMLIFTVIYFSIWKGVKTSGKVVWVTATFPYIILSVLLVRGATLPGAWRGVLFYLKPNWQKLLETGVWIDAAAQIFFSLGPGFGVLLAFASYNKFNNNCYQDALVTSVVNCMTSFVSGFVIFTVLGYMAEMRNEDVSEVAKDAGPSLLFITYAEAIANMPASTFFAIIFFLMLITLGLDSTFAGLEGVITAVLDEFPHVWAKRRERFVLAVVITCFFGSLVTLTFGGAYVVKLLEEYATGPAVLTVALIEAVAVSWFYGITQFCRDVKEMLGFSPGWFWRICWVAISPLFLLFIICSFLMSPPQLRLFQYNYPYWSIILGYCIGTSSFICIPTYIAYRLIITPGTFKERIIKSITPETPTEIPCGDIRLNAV
Protocol: as §2

mice [5] = details: i.p. in mice, comparative antineoplastic agents; cited from earlier work

In the case of `C=CCc1ccc(OC)c(-c2cc(CC=C)ccc2OC(CCNC)c2ccccc2)c1.Cl` (stereo not drawn) [Example 2, 5,5'-Diallyl-2-methoxy-2'-[3-(methylamino)-1-phenylpropoxy]biphenyl hydrochloride], the MTD [1] is reported as 50 mg/kg, the “antinociceptive activity in the hot plate test” value (mice [2]) is reported as “Dose-dependent antinociceptive activity” and the “antinociceptive activity in the formalin test” value (mice [3]; 30 mg/kg i.p, early and late phases, potency similar to morphine 10 mg/kg i.p.) is reported as “to a lesser extent”. For the same compound, the “antinociceptive activity in the formalin model” value (mice [3]; 10 and 30 mg/kg i.p, late phase) was “dose-dependent antinociceptive activity”, the “Early Response” value (mice [3]; formalin test, dose 30 mg/Kg i.p., early response 0-5 min) was “inactive” and the “Late Response” value (mice [3]; formalin test, dose 30 mg/Kg i.p., late response 20-30 min) was “active”. It also gave an IC50 (tumor prostate LNCaP-FGC) of 1800 nM, an IC50 (tumor breast MCF-7) of 2600 nM and an IC50 (tumor liver HepG2) of 3600 nM. The IC50 (tumor breast MDA-MB-231) was 2100 nM, the IC50 (tumor leukaemia K562) was 4200 nM and the IC50 (tumor lung A549) was 1300 nM. It also gave an IC50 (tumor brain U-87 MG) of 2200 nM, an IC50 (tumor colon HCT-116) of 2100 nM and an IC50 (tumor breast T-47D) of 12000 nM. It also gave an IC50 (tumor ovary OVCAR-3) of 2300 nM, an IC50 (tumor liver Hep 3B) of 3200 nM and an inhibition at 10 µM [4] of 33%. The IC50 (tumor melanoma B16-FO) was 2300 nM and the inhibition at 10 µM (Src) was 55%.
In the case of `C=CCc1ccc(OCC)c(-c2cc(CC=C)ccc2OC(CCNC)c2ccccc2)c1` (stereo not drawn) [Example 3, 5,5'-Diallyl-2-ethoxy-2'-[3-(methylamino)-1-phenylpropoxylbiphenyl hydrochloride], the “% Inhibition (5.0 µM) NE Uptake” value (NE Uptake) is reported as 85%, the “% Inhibition (5.0 µM) 5-HT Uptake” value (5-HT Uptake) is reported as 52% and the inhibition at 5 µM (NET) is reported as 87%. The inhibition at 5 µM (5-HT2A receptor) was 86% and the inhibition at 5 µM (SERT) was 73%.
For `N.N.[Cl][Pt][Cl]` [cisplatin], the MTD (mice [5]) is given as 4 mg/kg.
For `CC(=O)O[C@H]1C(=O)[C@@]2(C)[C@H]([C@H](OC(=O)c3ccccc3)[C@]3(O)C[C@H](OC(=O)[C@H](O)[C@@H](NC(=O)c4ccccc4)c4ccccc4)C(C)=C1C3(C)C)[C@]1(OC(C)=O)CO[C@@H]1C[C@@H]2O` [placlitaxel], the MTD (mice [5]) is listed as 20 to 50 mg/kg.

From EP2423181A1, “Multitarget substituted biphenyl diol derivatives” (PROUS INSTITUTE FOR BIOMEDICAL RESEARCH S.A., priority 2010, dated 2012)
